Experimental findings from US20110275583A1, “Synergistic active compound combinations” (priority 2010, published 2011) are described below.

Assay type in all cases: in vivo
In experiment [1] the test system is green peach aphid (Myzus persicae). Nature of the experiment: Myzus persicae test (spray treatment of infested cabbage leaves). The following applies: Myzus persicae. The source says: (§1) The expected action for a given combination of two active compounds can be calculated as follows, using the formula of S. R. Colby, Weeds 15 (1967), 20-22: • If • X is the kill rate, expressed as % of the untreated control, when employing active compound A at an application rate of m g/ha or in a concentration of in ppm, • Y is the kill rate, expressed as % of the untreated control, when employing active compound B at an application rate of n g/ha or in a concentration of n ppm and • E is the kill rate, expressed as % of the untreated control, when employing active compounds A and B at application rates of m and n g/ha or in a concentration of m and n ppm, • then
(§2) If the actual kill rate exceeds the calculated value, the action of the combination is superadditive, i.e. a synergistic effect is present. In this case, the actually observed kill rate must exceed the value calculated using the above formula for the expected kill rate (E).
(§3) Solvent: 78 parts by weight of acetone • • 1.5 parts by weight of dimethylformamide
(§4) Emulsifier: 0.5 part by weight of alkylaryl polyglycol ether
(§5) To produce a suitable preparation of active compound, 1 part by weight of active compound is mixed with the stated amounts of solvent and emulsifier, and the concentrate is diluted with emulsifier-containing water to the desired concentration.
Cabbage leaves (Brassica oleracea) which are heavily infested by the green peach aphid (Myzus persicae) are treated by spraying with the active compound preparation of the desired concentration.
After the desired period of time, the kill in % is determined. 100% means that all of the aphids have been killed; 0% means that none of the aphids have been killed. The kill rates determined are entered into Colby's formula.

Experiment [2] concerns larvae of the mustard beetle (Phaedon cochleariae). Nature of the experiment: Phaedon cochleariae larvae test (sprayed cabbage leaves). Particulars: Phaedon cochleariae, single active compound.
From the text: as §1, §2, §3, §4, §5
Cabbage leaves (Brassica oleracea) are treated by spraying with the active compound preparation of the desired concentration and populated with larvae of the mustard beetle (Phaedon cochleariae) while the leaves are still moist.
After the desired period of time, the kill in % is determined. 100% means that all beetle larvae have been killed; 0% means that none of the beetle larvae have been killed. The kill rates determined are entered into Colby's formula.

For experiment [3], the system named is armyworm (Spodoptera frugiperda). Put plainly: Spodoptera frugiperda larvae test (sprayed cabbage leaves). Particulars: single active compound.
From the text: as §1, §2, §3, §4, §5
Cabbage leaves (Brassica oleracea) are treated by being sprayed with the preparation of active compound of the desired concentration and are populated with the armyworm (Spodoptera frugiperda) while the leaves are still moist.
After the desired period of time, the kill in % is determined. 100% means that all caterpillars have been killed; 0% means that none of the caterpillars have been killed. The kill rates determined are entered, into Colby's formula.

Experiment [4] deals with greenhouse red spider mite (Tetranychus urticae). Nature of the experiment: Tetranychus test, OP-resistant/spray treatment (bean leaf discs). The following applies: single active compound.
From the text: as §1, §2, §3, §4, §5
Discs of bean leaves (Phaseolus vulgaris) which are infested by all stages of the greenhouse red spider mite (Tetranychus urticae) are sprayed with an active compound preparation of the desired concentration.
After the desired period of time, the effect in % is determined. 100% means that all of the spider mites have been killed; 0% means that none of the spider mites have been killed.

The mark [5] stands for this setting: 24 h, after 1 d, read-out: Kill in % after 1d.
Where [6] appears, read: 48 h, 2 d, read-out: Kill in % after 2 d.
The mark [7] stands for this setting: Spodoptera frugiperda, 144 h, 6 d, read-out: Kill in % after 6 d.
Where [8] appears, read: Tetranychus urticae, foliar, 48 h, 2 d, read-out: Kill in % after 2 d.
[9] abbreviates: 144 h, 6 d, read-out: Kill in % after 6 d.
Setting [10] is: Tetranychus urticae, foliar, 144 h, 6 d, read-out: Kill in % after 6 d.
Setting [11] is: Tetranychus urticae, foliar, 48 h, 100 g/ha, 2 d, read-out: Kill in % after 2 d.
The mark [12] stands for this setting: Spodoptera frugiperda, 48 h, 2 d, read-out: Kill in % after 2 d.
The mark [13] stands for this setting: Spodoptera frugiperda, 144 h, 4 g/ha, 6 d, read-out: Kill in % after 6 d.
The mark [14] stands for this setting: 144 h, single active compound, 6 d, read-out: Kill in % after 6 d.

Read-outs that look alike come from different tables or passages of the source.

`CNC(=O)c1cc(C#N)cc(C)c1NC(=O)c1cc(Br)nn1-c1ncccc1Cl` [Cyazypyr, cyantraniliprole]: the pest or weed control at 0.8 g/ha came to 0% in experiment [1] (setting [5]), 50% in experiment [2] (setting [6]) and 50% in experiment [3] (setting [7]). Further, the pest or weed control at 0.16 g/ha in experiment [2] (144 h, 0.16 g/ha, 6 d, read-out: Kill in % after 6 d) was 33%. Besides, the pest or weed control at 20 g/ha in experiment [4] (setting [8]) amounted to 0%.

Take `CC1(C)C(/C=C(\Cl)C(F)(F)F)C1C(=O)OC(C#N)c1cccc(Oc2ccccc2)c1` [L-cyhalothrin, lambda-cyhalothrin]: in experiment [1] (setting [5]), the pest or weed control at 0.032 g/ha is 0%. Moreover, the pest or weed control at 0.8 g/ha in experiment [2] (setting [9]) worked out at 33%; in experiment [3] (setting [7]) it was 50%; in experiment [4] (Tetranychus urticae, foliar, 144 h, 0.8 g/ha, 6 d, read-out: Kill in % after 6 d) it was 0%. Also, the pest or weed control at 0.16 g/ha in experiment [3] (Spodoptera frugiperda, 144 h, 0.16 g/ha, 6 d, read-out: Kill in % after 6 d) came to 0%. The pest or weed control at 4 g/ha in experiment [4] (setting [10]) turned out to be 80%.

As to `CNC(=O)O/N=C/C(C)(C)SC` [aldicarb], the pest or weed control at 100 g/ha in experiment [3] (setting [7]) and in experiment [4] (setting [11]) was 0% each time.

Consider `CC1(C)C(C=C(Cl)Cl)C1C(=O)OC(C#N)c1cccc(Oc2ccccc2)c1` (stereo not drawn) [alpha-cypermethrin], for which the pest or weed control at 0.16 g/ha in experiment [1] (24 h, 0.16 g/ha, after 1 d, read-out: Kill in % after 1d) stood at 0%. Besides, the pest or weed control at 4 g/ha in experiment [2] (setting [9]) turned out to be 67%. Further, the pest or weed control at 0.8 g/ha in experiment [3] (setting [7]) is 33%.

Regarding `CNC(=O)c1cc(Cl)cc(C)c1NC(=O)c1cc(Br)nn1-c1ncccc1Cl` [chloranthraniliprole, chlorantraniliprole], the pest or weed control at 0.8 g/ha in experiment [1] (setting [5]) was found to be 0%; in experiment [2] (setting [6]), 67%. For the same molecule, the pest or weed control at 4 g/ha in experiment [3] (Spodoptera frugiperda, 48 h, 4 g/ha, 2 d, read-out: Kill in % after 2 d) was 67%.

For the molecule `CCOP(=S)(OCC)Oc1nc(Cl)c(Cl)cc1Cl` [chlorpyrifos], the “Kill in % after 6 d” value is given as 0% in experiment [3] (4 g/ha, 6 d) and 0% in experiment [4] (100 g/ha, 6 d).

Turning to `c1cnc(-c2cccc(-c3cnc(-c4cccnc4)s3)n2)nc1` [compound of the formula (I-2)], the pest or weed control at 4 g/ha worked out at 0% in experiment [1] (24 h, 4 g/ha, after 1 d, read-out: Kill in % after 1d); 0% in experiment [2] (setting [6]); 0% in experiment [2] (setting [9]); 0% in experiment [4] (setting [8]); 0% in experiment [4] (setting [10]). Also, the pest or weed control at 20 g/ha in experiment [1] (24 h, 20 g/ha, after 1 d, read-out: Kill in % after 1d) turned out to be 0%; in experiment [2] (setting [6]) it was 0%; in experiment [2] (setting [9]), 0%; in experiment [3] (setting [12]), 0%; in experiment [3] (setting [7]), 0%; in experiment [4] (setting [8]), 0%. The pest or weed control at 100 g/ha in experiment [1] (24 h, 100 g/ha, after 1 d, read-out: Kill in % after 1d) worked out at 0%; in experiment [2] (setting [6]), 0%; in experiment [2] (setting [9]), 0%; in experiment [3] (setting [12]), 0%; in experiment [3] (setting [7]), 0%; in experiment [4] (setting [11]), 0%. For the same molecule, the pest or weed control at 500 g/ha in experiment [1] (24 h, 500 g/ha, after 1 d, read-out: Kill in % after 1d) is 0%; in experiment [2] (setting [6]) it was 0%; in experiment [2] (setting [9]), 0%; in experiment [3] (setting [12]), 0%; in experiment [3] (setting [7]) it was 0%; in experiment [4] (setting [8]) it was 0%. Besides, the pest or weed control at 500 g/ha in experiment [4] (setting [10]) was 0%.

On to `CC1(C)[C@H](C(=O)O[C@H](C#N)c2cccc(Oc3ccccc3)c2)[C@@H]1C=C(Br)Br` [deltamethrin], for which the pest or weed control at 0.032 g/ha in experiment [1] (setting [5]) is 70%; in experiment [3] (Spodoptera frugiperda, 144 h, 0.032 g/ha, 6 d, read-out: Kill in % after 6 d), 33%. Also, the pest or weed control at 0.8 g/ha in experiment [2] (setting [6]) amounted to 67%.

`N#Cc1nn(-c2c(Cl)cc(C(F)(F)F)cc2Cl)c(N)c1[S+]([O-])C(F)(F)F` (centres unmarked) [fipronil]: in experiment [2] (setting [6]), the pest or weed control at 0.8 g/ha was 50%. Also, the pest or weed control at 4 g/ha in experiment [3] (setting [13]) stood at 0%. Moreover, the pest or weed control at 100 g/ha in experiment [4] (Tetranychus urticae, foliar, 144 h, 100 g/ha, 6 d, read-out: Kill in % after 6 d) is 0%.

On to `Cc1cc(C(F)(C(F)(F)F)C(F)(F)F)ccc1NC(=O)c1cccc(I)c1C(=O)NC(C)(C)CS(C)(=O)=O` [flubendiamide, Flubendiamide], for which the pest or weed control at 0.8 g/ha in experiment [1] (setting [14]) came out at 0%. Further, the pest or weed control at 4 g/ha in experiment [3] (setting [13]) is 33%.

Regarding `COC(=O)N(C(=O)N1COC2(C(=O)OC)Cc3cc(Cl)ccc3C2=N1)c1ccc(OC(F)(F)F)cc1` (centres unmarked) [indoxacarb], in experiment [2] (setting [9]), the pest or weed control at 0.8 g/ha amounted to 0%. In addition, in experiment [3] (setting [12]), the pest or weed control at 100 g/ha stood at 50%.

Turning to `O=C(NC(=O)c1c(F)cccc1F)Nc1cc(Cl)c(OC(F)(F)C(F)C(F)(F)F)cc1Cl` (centres unmarked) [lufenuron], in experiment [2] (setting [9]), the pest or weed control at 100 g/ha is 33%. In experiment [3] (setting [13]), the pest or weed control at 4 g/ha was found to be 0%.

For the molecule `CNC(=O)Oc1cc(C)c(SC)c(C)c1` [methiocarb], the pest or weed control at 100 g/ha in experiment [2] (setting [6]) came out at 50%; in experiment [3] (setting [12]), 0%.

Consider `FC(F)(F)c1ccc(OCCCOc2c(Cl)cc(OCC=C(Cl)Cl)cc2Cl)nc1` [pyridalyl], for which the pest or weed control at 0.8 g/ha in experiment [1] (setting [14]) was found to be 0%. Also, in experiment [3] (setting [13]), the pest or weed control at 4 g/ha came to 17%. Besides, the pest or weed control at 20 g/ha in experiment [4] (setting [10]) is 10%.
